The values below are quoted from earlier work in patent US20090254175A1, “Valved stent for chronic venous insufficiency” (priority 2008, published 2009).

Regarding `C[C@H](CCC(=O)O)[C@H]1CC[C@H]2[C@@H]3CC[C@@H]4C[C@H](O)CC[C@]4(C)[C@H]3C[C@H](O)[C@]12C` [Deoxycholic acid], the “solubility in acetic acid” value is recorded as “soluble” and the solubility in alcohol result is given as “soluble”. For the setting “acetone and glacial acetic acid, compared with alcohol”, the “solubility in acetone and glacial acetic acid” value is reported as “to a lesser extent”. For the same molecule, for the setting “water”, the solubility in water entry is listed as “sparingly soluble”.

Take `C[C@H](CCC(=O)O)[C@H]1CC[C@H]2[C@@H]3[C@@H](O)C[C@@H]4C[C@H](O)CC[C@]4(C)[C@H]3CC[C@]12C` [ursodeoxycholic acid, reference compound]: the “solubility in acetic acid” value is recorded as “soluble” and the solubility in alcohol result was “soluble”.
